From patent US6124477A, “Anti-first-pass effect compounds” (priority 1997, dated 2000)
Where two headings read alike, the source gives them in different places.

Assays:
Human Cytochrome P450 [1] = test: Determination of first-pass effectiveness of furocoumarins (human cytochrome P450-mediated biotransformation, Protocol C / C'); format: in vitro ADME
Experimental: The process of preparing incubation mixtures begins by mixing 10 uL of ethanol or an ethanolic solution containing an inhibitor with 100 uL of 100 mg/mL bovine serum albumin (Sigma) dissolved in reaction buffer at room temperature. Reaction buffer is composed of 0.10 M sodium phosphate, 1.0 mM ethylenediaminetetraacetic acid, and 5.0 mM magnesium chloride, pH 7.4 (all reagents: Fisher Scientific). Inhibitory chemicals used were ketoconazole (Research Diagnostics, Inc.), miconazole, bergapten, xanthotoxin (previous three from Sigma), bergamotin, imperatorin, isopimpinellin, psoralen, angelicin (previous five from Indofine Chemical Company, Inc.), and fractions or precipitates resulting from Protocols A, A', B, B', or B" above. When possible, final inhibitor concentrations were expressed in molarity by calculation from the weighed material or by interpolation from HPLC calibration curves prepared with reference materials; otherwise, concentrations are expressed as weight per volume. Reaction tubes are placed on ice in preparation for the manipulations that follow. Sufficient reaction buffer is added so that the final volume of each tube will be 500 uL, 5 uL of a 100-fold concentrate for generating reduced nicotinamide adenine dinucleotide phosphate is added (such that completed reaction mixture contains 1.0 mM nicotinamide adenine dinucleotide phosphate, 1 U/mL glucose-6-phosphate dehydrogenase, and 10 mM glucose-6-phosphate; all from Sigma), and then human hepatic S9 (Anatomic Gift Foundation) is thawed and added in sufficient amounts to cause readily detectable amounts of metabolites to be formed in control reactions (amount necessary varies among individuals, but 10 uL is typical).
The samples prepared above are readied for HPLC assessment using the protocol that follows. Each tube is vortex mixed and centrifuged for 10 min at setting 35, the resulting supernatant is transferred to a clean tube, and the liquid is evaporated using a Speed Vac apparatus. The residue in each tube is first dissolved in 40 uL 1:1 acetonitrile:water, 2.5 mL of acetonitrile is added, and the centrifuge-transfer-evaporate step just described is repeated.
Linear gradients are used for elution and are formed by mixing mobile phase A composed of water with mobile phase B composed of 0.025% (v/v) formic acid in acetonitrile (instrument: Hewlett Packard). The elution time, in minutes, the percentage of mobile phase B present in the mixed mobile phase, and the flow rate (mL/min) are as follows: 0, 10, 0.10; 2, 10, 0.10; 3.5, 10, 0.20; 4, 10, 0.25; 5, 10, 0.25; 30, 55, 0.25; 32, 98, 0.25; 33, 98, 0.40; 39.8, 98, 0.40; 40, 98, 0.25; 45, 10, 0.25; 45.25, 10, 0.20; 50, 10, 0.20; 50.25, 10, 0.10. The chromatographic column has dimensions of 150 mm length×2.1 mm internal diameter, is packed with a proprietary material (Prism, Keystone Scientific, Inc.), is protected with a 2 mm internal diameter column containing the same material and with a PTFE filter, and is maintained at 35+/-0.2° C. The dry sample residue is mixed with 60 uL of 1:1 acetonitrile:water followed by 40 uL water just prior to each 50.25 min run cycle. The column eluate from each 10 uL injection is monitored for fluorescence with excitation at 228 nm, emission at 291 nm, and bandpass filtration at 280 nm.
The process of preparing incubation mixtures begins by mixing 10 uL of ethanol (control reactions) or an ethanolic solution containing an inhibitor with 100 uL of 100 mg/mL bovine serum albumin (Sigma) dissolved in reaction buffer at room temperature. Reaction buffer is composed of 0.10 M sodium phosphate, 1.0 mM ethylenediaminetetraacetic acid, and 5.0 mM magnesium chloride, pH 7.4 (all reagents: Fisher Scientific). […] Final inhibitor concentrations were expressed in molarity by calculation from the weighed material or by use of Beer's law. Reaction tubes are placed on ice in preparation for the manipulations that follow. […]

Human Cytochrome P450 [2] = test: Protocol C': generation of saquinavir metabolites by human hepatic S9 in the presence of inhibitor; format: in vitro ADME
Experimental: The process of preparing incubation mixtures begins by mixing 10 uL of ethanol (control reactions) or an ethanolic solution containing an inhibitor with 100 uL of 100 mg/mL bovine serum albumin (Sigma) dissolved in reaction buffer at room temperature. Reaction buffer is composed of 0.10 M sodium phosphate, 1.0 mM ethylenediaminetetraacetic acid, and 5.0 mM magnesium chloride, pH 7.4 (all reagents: Fisher Scientific). […] Final inhibitor concentrations were expressed in molarity by calculation from the weighed material or by use of Beer's law. Reaction tubes are placed on ice in preparation for the manipulations that follow. Sufficient reaction buffer is added so that the final volume of each tube will be 500 uL, 5 uL of a 100-fold concentrate for generating reduced nicotinamide adenine dinucleotide phosphate is added (such that completed reaction mixture contains 1.0 mM nicotinamide adenine dinucleotide phosphate, 1 U/mL glucose-6-phosphate dehydrogenase, and 10 mM glucose-6-phosphate; all from Sigma), and then human hepatic S9 (Anatomic Gift Foundation) is thawed and added in sufficient amounts to cause readily detectable amounts of metabolites to be formed in control reactions (amount necessary varies among individuals, but 10 uL is typical). […]
The samples prepared above are readied for HPLC assessment using the protocol that follows. […]

[3] = in vivo; cited from earlier work
first-pass effect [4] = details: in vivo; cited from earlier work
first-pass effect [5] = details: inhibitors commonly given to humans; cited from earlier work
cytochrome P450 = details: given to humans in large doses; cited from earlier work

C/C(=C\COc1c2ccoc2cc2oc(=O)ccc12)CCC(O)C(C)(C)O (stereo not drawn) [6', 7'-dihydroxybergamottin]
first-pass effect effectiveness (Human Cytochrome P450 [1]): ineffective

O=c1ccc2ccc3occc3c2o1 [angelicin]
first-pass effect effectiveness (Human Cytochrome P450 [1]; determined herein): ineffective

CC(C)=CCC/C(C)=C/COc1c2ccoc2cc2oc(=O)ccc12 [bergamottin]
first-pass effect effectiveness (Human Cytochrome P450 [1]): ineffective | first-pass inhibition (saquinavir metabolite generation) (Human Cytochrome P450 [2]): essentially ineffective first-pass inhibitors

COc1c2ccoc2cc2oc(=O)ccc12 [bergapten, 5-methoxypsoralen]
phototoxicity [3]: phototoxic

CC[C@H]1OC(=O)[C@H](C)[C@@H](O[C@H]2C[C@@](C)(OC)[C@@H](O)[C@H](C)O2)[C@H](C)[C@@H](O[C@@H]2O[C@H](C)C[C@H](N(C)C)[C@H]2O)[C@](C)(O)C[C@@H](C)C(=O)[C@H](C)[C@@H](O)[C@]1(C)O [erythromycin]
inhibition of the first-pass effect (first-pass effect [4]): inhibitors of the first-pass effect

OC(Cn1cncn1)(Cn1cncn1)c1ccc(F)cc1F [fluconazole]
inhibition of the first-pass effect (first-pass effect [4]): inhibitors of the first-pass effect

CC(C)=CCOc1c2occc2cc2ccc(=O)oc12 [imperatorin]
first-pass effect effectiveness (Human Cytochrome P450 [1]; determined herein): ineffective | first-pass inhibition (saquinavir metabolite generation) (Human Cytochrome P450 [2]; FIG. 1, Protocol C', saquinavir, human hepatic S9): essentially ineffective first-pass inhibitors

COc1c2ccoc2c(OC)c2oc(=O)ccc12 [isopimpinellin]
first-pass effect effectiveness (Human Cytochrome P450 [1]; determined herein): ineffective

CCC(C)n1ncn(-c2ccc(N3CCN(c4ccc(OCC5COC(Cn6cncn6)(c6ccc(Cl)cc6Cl)O5)cc4)CC3)cc2)c1=O (stereo not drawn) [itraconazole]
inhibition of the first-pass effect (first-pass effect [4]): inhibitors of the first-pass effect

CC(=O)N1CCN(c2ccc(OCC3COC(Cn4ccnc4)(c4ccc(Cl)cc4Cl)O3)cc2)CC1 (stereo not drawn) [ketoconazole]
inhibition of the first-pass effect (first-pass effect [4]): inhibitors of the first-pass effect

C/C(=C\COc1ccc2ccc(=O)oc2c1)CCC(O)C(C)(C)O (stereo not drawn) [marmin]
first-pass effect effectiveness (Human Cytochrome P450 [1]): ineffective

Clc1ccc(COC(Cn2ccnc2)c2ccc(Cl)cc2Cl)c(Cl)c1 (stereo not drawn) [miconazole]
inhibition of the first-pass effect (first-pass effect [4]): inhibitors of the first-pass effect

Cc1ncc2n1-c1ccc(Cl)cc1C(c1ccccc1F)=NC2 [midazolam]
bioavailability in presence of inhibitors (first-pass effect [5]): bioavailability is increased by inhibitors commonly given to humans

O=c1ccc2cc3ccoc3cc2o1 [psoralen]
first-pass effect effectiveness (Human Cytochrome P450 [1]; determined herein): ineffective | phototoxicity [3]: phototoxic | inhibition of cytochrome P450 (cytochrome P450): do inhibit cytochrome P450

Cc1nnc2n1-c1ccc(Cl)cc1C(c1ccccc1Cl)=NC2 [triazolam]
bioavailability in presence of inhibitors (first-pass effect [5]): bioavailability is increased by inhibitors commonly given to humans

CO[C@H]1C[C@H](O[C@H]2[C@H](C)[C@@H](O[C@@H]3O[C@H](C)C[C@H](N(C)C)[C@H]3OC(C)=O)[C@@H](C)C[C@@]3(CO3)C(=O)[C@H](C)[C@@H](OC(C)=O)[C@@H](C)[C@@H](C)OC(=O)[C@@H]2C)O[C@@H](C)[C@@H]1OC(C)=O [troleandomycin]
inhibition of the first-pass effect (first-pass effect [4]): inhibitors of the first-pass effect

COc1c2occc2cc2ccc(=O)oc12 [xanthotoxin, 8-methoxypsoralen]
phototoxicity [3]: phototoxic
